From the OPERA property sets (Mansouri et al. 2018) come the findings set out here.

Structures are written as SMILES.

For `CCCOc1ccccc1OCC(O)CO` (configuration not stated), the melting point – broadly, the temperature of the solid-liquid transition – was found to be 70 °C.

In turn, `Cl.N=C(N)SCc1ccccc1` yielded a melting point of 173 °C.

Take `CCN(CC)C(=O)C(C)Oc1cccc2ccccc12` (configuration not stated): the log10 Koc (L/kg) amounted to 2.76, the log10 vapour pressure (mmHg) is -6.76 and the melting point stood at 75 °C.

In turn, `CCCCCCCCCCCCCCCCCCOS(=O)(=O)[O-].[Na+]` displayed a melting point of 212 °C.

With `O=[N+]([O-])c1cccc(I)c1`, the boiling point – broadly, the temperature at which the vapour pressure of the liquid equals the pressure above it – is 280 °C and the melting point was 38.5 °C.

As to `Cc1cc(O)c(C(C)(C)C)cc1Sc1cc(C(C)(C)C)c(O)cc1C`, the melting point came out at 162 °C and the ready biodegradability entry is “not readily biodegradable”.

The molecule `NC(=O)NO` had a melting point of 141 °C.

With `O=P1(N(CCCl)CCCl)NCCCO1` (configuration not stated), the melting point worked out at 51.5 °C and the ready biodegradability result is listed as “not readily biodegradable”.

The molecule `CC(=O)O[C@]1(C(C)=O)CC[C@H]2[C@@H]3C[C@H](C)C4=CC(=O)CC[C@]4(C)[C@H]3CC[C@@]21C` gave a melting point of 206 °C.

For `CC=CC(=O)Cl`, the boiling point came out at 124 °C.

Molecule `Cc1ccc(C(=O)c2ccccc2)cc1C` displayed a boiling point of 341 °C and a melting point of 47.5 °C.

In the case of `Cc1cc(C(C)(C)C)cc(C(C)(C)C)c1O`, the boiling point came to 269 °C and the melting point was found to be 51 °C.

`O=[N+]([O-])c1cc(I)c(O)c(I)c1` had a melting point of 157 °C.

The molecule `Oc1ccccc1N=Nc1ccccc1O` displayed a melting point of 173 °C.

`CC(C)CS` gave a boiling point of 88.5 °C and a log10 vapour pressure (mmHg) of 1.84.

`Clc1ccc2c(c1)C(N1CCNCC1)=Nc1ccccc1O2` showed a melting point of 176 °C.

On to `CCOP(=O)(NC(C)C)Oc1ccc(SC)c(C)c1` (configuration not stated), for which the log10 Koc (L/kg) worked out at 2.51, the log10 vapour pressure (mmHg) was -6 and the melting point was 49 °C.

In the case of `CC1CCOS(=O)O1` (configuration not stated), the boiling point was 185 °C and the melting point turned out to be 5 °C.

On to `Cc1c(Br)c(Br)c(Br)c(Br)c1Br`, for which the melting point worked out at 288 °C and the ready biodegradability result is recorded as “not readily biodegradable”.

The molecule `CC(Cl)=CCCl` showed a boiling point of 131 °C.

`COc1c(Cl)c(Cl)c(Cl)c(Cl)c1OC`: the melting point is 90 °C.

Consider `Cc1ccc2cc3ccccc3cc2c1`, for which the log10 vapour pressure (mmHg) was -5.27 and the melting point was determined as 209 °C.

For the molecule `CCCCCCCCCCCCCCCCOC(C)=O`, the melting point was -18.5 °C.

Regarding `CCSC(C)=O`, the boiling point came to 116 °C.

In the case of `COc1ccc(C(=O)O)c(OC)c1OC`, the melting point was determined as 100 °C.

In the case of `CCO[Si](CCCN)(OCC)OCC`, the boiling point stood at 217 °C and the ready biodegradability result was “not readily biodegradable”.

Regarding `CC#CCCC`, the boiling point turned out to be 84.5 °C and the melting point is -89.6 °C.

With `CCCCOC(=O)COc1ccc(Cl)cc1Cl`, the log10 vapour pressure (mmHg) is -4.21.

`Cc1ccc(O)cc1Cl`: the boiling point amounted to 228 °C, the melting point was found to be 55.5 °C and the ready biodegradability entry is on record as “not readily biodegradable”.

In turn, `N#Cc1ccnc2ccccc12` showed a boiling point of 242 °C and a melting point of 104 °C.

`Clc1cc(Cl)c(-c2ccc(Cl)c(Cl)c2)c(Cl)c1`: the log10 Henry constant (atm·m³/mol) was -4.13.

Regarding `C=COCCOCCO`, the boiling point was determined as 196 °C.

Take `Sc1cccc2ccccc12`: the boiling point came to 285 °C and the ready biodegradability entry was “not readily biodegradable”.

Turning to `CCn1cc(C(=O)O)c(=O)c2cc(F)c(N3CCNCC3)nc21`, the melting point worked out at 222 °C.

For the molecule `CC(C)S`, the boiling point was 52.5 °C, the log10 vapour pressure (mmHg) is 2.44 and the melting point was -130 °C.

`C=C(C)C(=O)C(=CC(=O)O)OC` had a melting point of 83 °C.

In the case of `O=C(OCCOC(=O)C(Cl)(Cl)Cl)C(Cl)(Cl)Cl`, the melting point worked out at 40 °C.

`OC1c2ccccc2-c2ccccc21`: the melting point was 154 °C.

With `CC(C)(CO)COC(=O)C(C)(C)CO`, the ready biodegradability entry was “not readily biodegradable”.

With `O=[N+]([O-])c1cccc(C(F)(F)F)c1`, the boiling point is 203 °C, the log10 vapour pressure (mmHg) was -0.587 and the melting point is -2.4 °C.

For `Cc1nc(N(C)C)nc(OC(=O)N(C)C)c1C`, the log10 Koc (L/kg) was determined as 1.9, the log10 vapour pressure (mmHg) was -5.14 and the melting point was determined as 90.5 °C.

`CC1=C(O)C(=O)C(C(C)C)CC1` (configuration not stated): the melting point was found to be 83 °C.

`CCc1cc(C)cc(C)c1`: the boiling point turned out to be 184 °C, the log10 biodegradation half-life (days) worked out at 0.301, the log10 vapour pressure (mmHg) worked out at 0.0133 and the melting point was -84.3 °C.

`CCCCNC(=O)OCC(C)(CCC)COC(N)=O` (configuration not stated) yielded a melting point of 50 °C.

Consider `COc1cccc(CO)c1O`, for which the melting point was determined as 61.5 °C.

`CCC(=O)C(C)(C)C`: the boiling point was determined as 126 °C and the melting point was -45 °C.

As for `COc1cc(OC)nc(NC(=O)NS(=O)(=O)c2c(-c3nnn(C)n3)cnn2C)n1`, the log10 Koc (L/kg) amounted to 1.89, the log10 vapour pressure (mmHg) was -10.5 and the melting point was 170 °C.

As to `CCCCCCCCCCCCCCCCBr`, the boiling point worked out at 336 °C, the log10 vapour pressure (mmHg) is -4.31, the melting point came to 18 °C and the ready biodegradability entry is listed as “readily biodegradable”.

The molecule `CC1(C)CCC(C)(C)O1` displayed a boiling point of 112 °C.

As to `C=CCCCCCCC=C`, the boiling point came out at 167 °C.

In turn, `NC(=O)Oc1ccccc1` returned a melting point of 150 °C.

The molecule `Nc1ccc(F)c([N+](=O)[O-])c1` displayed a melting point of 97.5 °C.

In the case of `C=CC(C)C(C)C` (configuration not stated), the boiling point was found to be 80.8 °C.

With `Clc1ccc(-c2c(Cl)cc(Cl)c(Cl)c2Cl)c(Cl)c1`, the melting point was determined as 73 °C.

Molecule `O=C(O)COc1ccc2ccccc2c1` gave a melting point of 156 °C.

As to `Cc1cc(O)ccc1Cl`, the boiling point worked out at 235 °C, the log10 vapour pressure (mmHg) was -1.3, the melting point amounted to 67 °C and the ready biodegradability entry is on record as “readily biodegradable”.

Turning to `C=CCOC(=O)c1ccco1`, the boiling point was 208 °C.

Regarding `CNC(=O)Oc1cccc2c1OC(C)(C)C2`, the log10 Koc (L/kg) is 1.75, the log10 vapour pressure (mmHg) was -5.31 and the melting point came to 151 °C.
